Where a SMILES comes first, the peptide text is derived from it.
Columns and labels:
[1] = system: RG2, clone N32 glioblastoma in the right brain hemisphere; test: Intracranial pressure in rats with implanted RG2-N32 glioblastoma after nasal peptide; type: in vivo, Fisher 344 rats
Excerpt: (§1) Adult male Fisher 344 rats were purchased from Charles River, Germany. The body weight at the time for the experiments was 230-250 g. The animals had water and pelleted feed ad libitum. Permission to the experiments was granted by the Regional Animal Experiments Ethical Committee, and national and EU rules were followed.
Cultured cells of the established glioma cell line RG2, clone N32, were stereotactically deposited in the right striatum of the brain of adult Fisher 344 rats (A. T. Aas, A Brun, C. Blennow, S. Strömblad and L. G. Salford (1995). The RG2 glioma model. J. Neuro-Oncology 23, 175-183; R. F. Barth and B. Kauer ([…]). Rat brain tumor models in experimental neuro-oncology: the C6, 9L, T9, RG2, F98, BT4C, RT-2 and CNS-1 gliomas. (J Neuro-Oncology 94, 299-312). After 18-22 days, a tumor, fulfilling established criteria for glioblastoma, was demonstrable in the right hemisphere, invading adjacent brain parenchyma (FIGS. 1, 2). […] FIG. 4 is showing the implantation of pressure sensors (Samba 3200; Samba Sensors A B, V. Frölunda, Sweden), one in each hemisphere. The intracranial pressure was measured to be in the range of 25-50 mm Hg (FIG. 4), that means strikingly elevated as compared to normally 5.3±2.1 mm Hg (H.-A. Hansson, M. Al-Olama, E. Jennische, K. Gatzinsky and S. Lange (2012). The peptide AF-16 and the AF protein counteract intracranial hypertension. Acta Neurochir. Suppl. 114, 377-382). Eventually, the intracranial pressure exceed 50-60 mm Hg, resulting in herniation of the brain, dislocations and impaired blood circulation, and death (FIG. 5).
The intracranial pressure was raised both in the tumor affected right side and in the contralateral left side, and the pressure dropped to the same extent in either brain hemisphere. Concomitantly, any demonstrable neurological impairment resolved.
Cultured cells of the established glioma cell line RG2, clone N32, were stereotactically deposited in the right striatum of the brain of adult Fisher 344 rats as described in
After 18-22 days a tumor, fulfilling established criteria for glioblastoma, was demonstrable in the right hemisphere, invading adjacent brain parenchyma.
A single dose of the peptide AF-6 (1-2 mg/kg body weight, dissolved in water) was instilled in the nose of a Fisher rat with an experimental glioblastoma tumor of the RG2-N32 origin at day 21 after implantation. About 15 min later the intracranial pressure started to dropped from 25-27 mm Hg to 17.7 mm Hg (FIG. 7).

[2] = system: GL261 glioma tumor in the right brain hemisphere; test: Intracranial / interstitial fluid pressure in mice with GL261 glioma after nasal peptide; type: in vivo, C57/BI/6 mice
Excerpt: Adult C57/BI/6 mice were purchased from B & K, Sollentuna, Sweden. The body weight was 23 g and the animals had water and pelleted feed ad libitum. Permission to the experiments was granted by the Regional Animal Experiments Ethical Committee, and national and EU rules were followed.
The GL261 mouse glioma cell line was of C57/BI/6 origin and cultured in the Rausing laboratory, BMC, Lund University, according to an established protocol (K. Enell Smith, S. Fritzell, W. Badn, S. Eberstål, S. Janelidze, E. Visse, A. Darabi and P. Siesjö (2008). Cure of established GL261 mouse gliomas after combined immunotherapy with GM-CSF and IFNγ is mediated by both CD8^+ and CD4^+ T-cells. Int. J. Cancer 124, 630-637).
C57/BI/6 mice had each 5.000 GL261 glioma cells in 5 μL tissue culture medium stereo tactically deposited in deep brain structure in the right brain hemisphere. An expanding tumor was formed and had 22 days later a diameter of 3-5 mm.
The six AA peptide AF-6 (SEQ ID NO:2) (manufactured by solid phase synthesis by K J Ross-Petersen ApS, Copenhagen, with >95% purity and TFA as counter ion) was selected to be investigated for its ability to reduce the increased intracranial pressure (ICP) inevitably evolving at this stage of tumor development.
A mouse with a GL261 tumor in the right brain hemisphere was anaesthetized with isofluran and positioned in a stereotactic holder. […]

[3] = system: RG2, clone N32 glioblastoma tumor cell nuclei; test: Uptake of tracer doxorubicin into glioblastoma cell nuclei of rats (fluorescence microscopy); type: in vivo, Fisher 344 rats
Excerpt: The aim of this experiment was to investigate if treatment with AF-16 increased the penetration of a marker through the tumor cells membrane and subsequent entrance and distribution in their nuclei. Doxorubicin was selected as a tracer for the reason that it is an established cytotoxic drug with a molecular mass of 543.52 g/mol, i.e. being considered as a fairly low molecular mass substance. Further, doxorubicin has a red color and when exposed to light emits a red fluorescence. Doxorubicin is strongly intercalating with the DNA in cell nuclei. This means that if a red fluorescence is observed in a cell nucleus the marker has been reached its target, the tumor cells. It is known that glioblastoma cells, in humans as in animals, prevent the entrance of chemotherapeutic substances into the tumor cells, and consequently no beneficial effects are attained. The most important barrier to the drug is prevailing at the surface of the tumor cells.
as §1
Cultured cells of the established glioma cell line RG2, clone N32, were stereotactically deposited in the right striatum of the brain of adult Fisher 344 rats as described in Example 1. After 20 days a tumor, fulfilling established criteria for being a glioblastoma, was present in the right brain hemisphere of either rat.
AF-16, 1 mg per kg body weight, dissolved in water and administrated as a single dose in a volume of 10 μL, was instilled in the nostrils of anaesthetized Fisher rats. […] Cryostat microtome sections were prepared of the brains, and examined with the aid of fluorescence microscope.
That means that very few doxorubicin molecules entered the tumor cells.

[4] = system: experimentally induced glioblastoma tumor cell nuclei; test: Uptake and binding of doxorubicin to tumor cell nuclei in mice with experimentally induced glioblastoma; type: in vivo; conditions: additional experiments
[5] = single nasal instillation 1-4 mg/kg body weight
[6] = AF-16 1 mg per kg body weight nasally, 1 h before i.v. doxorubicin 10 mg per kg, sacrificed 30 min later
[7] = AF-16 4 mg/kg bw nasally 1 h prior to i.v. doxorubicin 10 mg/kg bw, brains removed 30 min later

| Compound | side effects ([1]; single nasal dose 1-2 mg/kg body weight) | side effects ([2]; nasal 5 mg per kg body weight) | effect on raised intracranial pressure (summary statement) ([1]; animals with experimentally induced glioblastoma, tumor and contralateral hemisphere) | start of intracranial pressure decrease after nasal administration ([1]; nasal AF-16 4 mg/kg bw) | intracranial pressure attained ([1]; nasal AF-16 4 mg/kg bw, in half an hour, either brain hemisphere) [mm Hg] | duration of the beneficial effects on intracranial pressure [1, 5] [h] | time to reduction of the high intracranial pressure [1, 5] [min] | intracranial pressure after reduction (acceptable level) ([1]; single nasal instillation 1-4 mg/kg body weight in 10 μL water, baseline 25-50 mm Hg, both hemispheres) [mm Hg] | demonstrable neurological impairment ([1]; single nasal instillation 1-4 mg/kg body weight, concomitant with pressure drop) | effect on raised intracranial pressure (statement in words) ([2]; mice with experimentally induced glioblastoma) | doxorubicin staining of the tumor cell nuclei [3, 6] | proportion of tumor cells labeled by doxorubicin [3, 6] | frequency of doxorubicin-stained tumor cell nuclei vs vehicle pretreatment [3, 7] | intensity of doxorubicin staining of tumor cell nuclei vs vehicle pretreatment [3, 7] | effect on uptake of doxorubicin by tumor cell nuclei (summary statement) ([3]; animals with experimentally induced glioblastoma) | effect on uptake and binding of doxorubicin to tumor cell nuclei [4] |
| --- | --- | --- | --- | --- | --- | --- | --- | --- | --- | --- | --- | --- | --- | --- | --- | --- |
| C[C@@H](O)[C@H](NC(=O)[C@H](CCCCN)NC(=O)[C@H](CO)NC(=O)[C@H](Cc1c[nH]cn1)NC(=O)[C@@H](N)CS)C(=O)N[C@@H](CCCNC(=N)N)C(=O)O [AF-6, CHSKTR] (H-CHSKTR-OH) | No side effects could be disclosed | No side effects were noticed | – | – | – | – | – | – | – | – | – | – | – | – | – | – |
| VCHSKTRSNPENNVGL (Variant (2)..(2) C may be replaced by S; Variant (3)..(3) H may be replaced by R or K; Variant (4)..(4) S may be replaced by L; Variant (6)..(6) T may be replaced by A) [AF-16, a peptide composed of the amino acids …, fragment of antisecretory factor protein] | – | – | lower the raised intracranial pressure | about 12 minutes | ~20 | 4 to 6 | 15 to 30 | ≤ 20 | resolved | reduced the high intracranial pressure | strong red staining | a large proportion of these cells were labeled | increased | increased | efficiently improved the uptake | facilitated the uptake and binding of doxorubicin to tumor cell nuclei |

— patent US20190192622A1, “Use of Antisecretory Factor (AF) in Glioblastoma Treatment” (LANTMÄNNEN AS-FAKTOR AB, priority 2012, published 2019)
